The values below come from publication PMC3198815 (PLoS ONE, 2011).

Structures are written as SMILES.

The assay addresses T1, xoFabV (Xanthomonas oryzae, UniProt Q2P9J6).
T1 construct: gene fabV
To be noted: weak binding, data not shown; no electron density in co-crystals.

T1 sequence (Q2P9J6 whole entry, looked up): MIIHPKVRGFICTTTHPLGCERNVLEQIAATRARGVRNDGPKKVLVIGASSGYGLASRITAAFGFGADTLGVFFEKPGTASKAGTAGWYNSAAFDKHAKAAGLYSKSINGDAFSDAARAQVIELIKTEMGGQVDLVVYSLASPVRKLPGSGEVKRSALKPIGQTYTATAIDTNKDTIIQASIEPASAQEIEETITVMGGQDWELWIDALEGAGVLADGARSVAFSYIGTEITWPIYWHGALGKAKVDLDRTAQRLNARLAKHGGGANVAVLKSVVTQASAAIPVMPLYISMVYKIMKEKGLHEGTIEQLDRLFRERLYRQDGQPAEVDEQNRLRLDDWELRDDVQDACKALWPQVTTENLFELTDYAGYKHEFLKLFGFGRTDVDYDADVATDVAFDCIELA

Take `NC(=O)c1ccc[n+]([C@@H]2O[C@H](COP(=O)(O)OP(=O)(O)OC[C@H]3O[C@@H](n4cnc5c(N)ncnc54)[C@H](O)[C@@H]3O)[C@@H](O)[C@H]2O)c1` [NAD^+]: the isothermal titration calorimetry entry is recorded as “NAD^+ binds weakly to xoFabV according to isothermal titration calorimetry assay (data not shown)”.
